{
  "source": "paper PMC7229161",
  "about": "(Scientific Reports, 2020)",
  "key": {"3XHA-cTRPV1-A578Q": {"tested_on": "3XHA-cTRPV1-A578Q", "type": "cell-based, chicken (Gallus gallus)"}, "rTRPV1": {"molecular_target": "rTRPV1 (Rattus norvegicus, UniProt O35433)", "sequence (O35433 whole entry)": "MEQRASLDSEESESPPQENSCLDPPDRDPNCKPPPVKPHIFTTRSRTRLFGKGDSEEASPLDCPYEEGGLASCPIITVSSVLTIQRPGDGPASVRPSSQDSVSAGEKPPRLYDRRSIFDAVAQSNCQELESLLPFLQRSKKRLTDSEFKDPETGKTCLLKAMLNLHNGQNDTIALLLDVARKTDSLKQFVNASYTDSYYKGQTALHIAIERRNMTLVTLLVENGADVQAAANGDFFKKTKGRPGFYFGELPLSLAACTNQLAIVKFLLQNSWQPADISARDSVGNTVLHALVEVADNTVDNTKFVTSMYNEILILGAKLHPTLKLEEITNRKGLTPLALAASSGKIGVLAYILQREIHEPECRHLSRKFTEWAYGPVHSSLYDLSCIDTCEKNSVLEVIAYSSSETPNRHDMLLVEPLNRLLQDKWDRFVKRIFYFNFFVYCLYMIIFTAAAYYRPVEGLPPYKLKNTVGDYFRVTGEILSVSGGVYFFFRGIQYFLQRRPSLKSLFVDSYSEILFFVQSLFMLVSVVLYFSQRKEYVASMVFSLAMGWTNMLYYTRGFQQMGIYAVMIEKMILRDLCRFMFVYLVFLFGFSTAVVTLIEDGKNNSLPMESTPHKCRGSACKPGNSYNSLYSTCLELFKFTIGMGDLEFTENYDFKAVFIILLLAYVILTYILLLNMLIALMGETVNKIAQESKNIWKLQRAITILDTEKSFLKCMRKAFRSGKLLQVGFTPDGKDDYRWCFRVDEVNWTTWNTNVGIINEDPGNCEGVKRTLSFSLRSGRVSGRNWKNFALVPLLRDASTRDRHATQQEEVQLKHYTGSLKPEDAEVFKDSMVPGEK", "type": "cell-based"}, "rTRPV1-E570K": {"molecular_target": "T1, rTRPV1-E570K (Rattus norvegicus, UniProt O35433, E570K)", "T1 construct": "expressed in transfected cells; host or cells: HEK293T", "T1 sequence (O35433 whole entry E570K)": "as the sequence (O35433 whole entry) above, with E570K counted along it", "type": "cell-based"}, "rTRPV1-E570Q": {"molecular_target": "T2, rTRPV1-E570Q (Rattus norvegicus, UniProt O35433, E570Q)", "T2 construct": "expressed in transfected cells; host or cells: HEK293T", "T2 sequence (O35433 whole entry E570Q)": "as the sequence (O35433 whole entry) above, with E570Q counted along it", "type": "cell-based"}, "rTRPV1-E570P": {"molecular_target": "T3, rTRPV1-E570P (Rattus norvegicus, UniProt O35433, E570P)", "T3 construct": "expressed in transfected cells; host or cells: HEK293T", "T3 sequence (O35433 whole entry E570P)": "as the sequence (O35433 whole entry) above, with E570P counted along it", "type": "cell-based"}, "rTRPV1-E570A": {"molecular_target": "T4, rTRPV1-E570A (Rattus norvegicus, UniProt O35433, E570A)", "T4 construct": "expressed in transfected cells; host or cells: HEK293T", "T4 sequence (O35433 whole entry E570A)": "as the sequence (O35433 whole entry) above, with E570A counted along it", "type": "cell-based"}, "3XHA-cTRPV1-A578P": {"tested_on": "3XHA-cTRPV1-A578P", "type": "cell-based, chicken (Gallus gallus)"}, "[1]": {"tested_on": "Ch6 rat-chicken TRPV1 chimera (rat N-terminus, M1-R428)", "type": "cell-based"}, "cTRPV1-A578E": {"molecular_target": "cTRPV1-A578E (Gallus gallus, UniProt Q8QFN9, A578E)", "sequence (Q8QFN9 1-843 A578E)": "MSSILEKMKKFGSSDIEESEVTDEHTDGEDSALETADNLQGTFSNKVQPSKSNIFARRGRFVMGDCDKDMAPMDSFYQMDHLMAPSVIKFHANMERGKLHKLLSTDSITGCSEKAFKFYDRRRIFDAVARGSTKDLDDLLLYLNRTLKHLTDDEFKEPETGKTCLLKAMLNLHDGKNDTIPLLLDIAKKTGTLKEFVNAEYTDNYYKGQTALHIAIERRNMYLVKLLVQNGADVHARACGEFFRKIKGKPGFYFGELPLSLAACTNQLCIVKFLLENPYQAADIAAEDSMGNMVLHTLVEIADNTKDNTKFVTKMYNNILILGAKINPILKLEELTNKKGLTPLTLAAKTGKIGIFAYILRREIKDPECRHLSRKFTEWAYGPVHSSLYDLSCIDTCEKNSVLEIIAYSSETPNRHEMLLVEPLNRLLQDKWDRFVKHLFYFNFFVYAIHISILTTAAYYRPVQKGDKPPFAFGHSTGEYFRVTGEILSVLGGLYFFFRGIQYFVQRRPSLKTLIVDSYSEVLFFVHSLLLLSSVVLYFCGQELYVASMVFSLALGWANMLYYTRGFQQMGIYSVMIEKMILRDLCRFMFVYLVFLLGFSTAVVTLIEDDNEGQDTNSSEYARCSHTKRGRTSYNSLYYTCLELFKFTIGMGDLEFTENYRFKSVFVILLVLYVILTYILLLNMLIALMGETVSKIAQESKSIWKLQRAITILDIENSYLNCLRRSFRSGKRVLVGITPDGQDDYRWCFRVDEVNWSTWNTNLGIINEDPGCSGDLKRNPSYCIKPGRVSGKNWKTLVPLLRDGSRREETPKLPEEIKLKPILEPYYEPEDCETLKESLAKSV", "assay": "cell-based", "parameters": "species or system chicken (Gallus gallus)"}, "[2]": {"tested_on": "Ch15 rat-chicken TRPV1 chimera (rat C-terminus, N687-K838)", "type": "cell-based"}, "3XHA-cTRPV1-A578K": {"tested_on": "3XHA-cTRPV1-A578K", "type": "cell-based, chicken (Gallus gallus)"}, "cTRPV1": {"molecular_target": "cTRPV1 (Gallus gallus, UniProt Q8QFN9)", "sequence (Q8QFN9 1-843)": "as the sequence (Q8QFN9 1-843 A578E) above, with E578A counted along it", "assay": "cell-based", "type": "cell-based, chicken (Gallus gallus)"}},
  "note": "Entries after “also recorded” stand apart in the source; their conditions may differ.",
  "data": [
    {"compound": "COc1cc(CNC(=O)CCCC/C=C/C(C)C)ccc1O", "note": "[capsaicin]", "values": [
      {"measurement": "vanilloid responsiveness (30 μM capsaicin-induced activation normalized to cocktail-induced maximum channel opening)", "setting": "3XHA-cTRPV1-A578Q", "value": "greatest capsaicin sensitivity"},
      {"measurement": "channel activation (Ca2+ signal)", "setting": "rTRPV1", "value": "activated rTRPV1"},
      {"measurement": "responsiveness to 300 nM capsaicin normalized to protein expression level", "setting": "rTRPV1-E570K", "value": "exhibited responsiveness to 300 nM capsaicin, albeit much weaker than wildtype"},
      {"measurement": "responsiveness to 300 nM capsaicin normalized to protein expression level", "setting": "rTRPV1-E570Q", "value": "exhibited responsiveness to 300 nM capsaicin, albeit much weaker than wildtype"},
      {"measurement": "responsiveness to 300 nM capsaicin normalized to protein expression level", "setting": "rTRPV1-E570P", "value": "reduced capsaicin sensitivity"},
      {"measurement": "capsaicin-induced responses vs wildtype rTRPV1", "setting": "rTRPV1-E570A", "value": "drastically decreased"},
      {"measurement": "vanilloid responsiveness (30 μM capsaicin-induced activation normalized to cocktail-induced maximum channel opening)", "setting": "3XHA-cTRPV1-A578P", "value": "greatest capsaicin sensitivity"},
      {"measurement": "capsaicin sensitivity of chimera vs cTRPV1", "setting": "[1]", "value": "limited improvement in capsaicin sensitivity"},
      {"measurement": "EC50", "setting": "cTRPV1-A578E", "value": "7.2 ± 9.4", "unit": "µM"},
      {"measurement": "increase of response to 100 μM capsaicin, A578E mutant vs wildtype cTRPV1", "setting": "cTRPV1-A578E", "value": 5, "unit": "fold"},
      {"measurement": "vanilloid responsiveness (30 μM capsaicin-induced activation normalized to cocktail-induced maximum channel opening)", "setting": "cTRPV1-A578E", "value": "greatest capsaicin sensitivity"},
      {"measurement": "capsaicin sensitivity of chimera", "setting": "[2]", "value": "no capsaicin sensitivity"},
      {"measurement": "vanilloid responsiveness (30 μM capsaicin-induced activation normalized to cocktail-induced maximum channel opening)", "setting": "3XHA-cTRPV1-A578K", "value": "greatest capsaicin sensitivity"},
      {"measurement": "EC50", "setting": "cTRPV1", "value": "> 30", "unit": "µM"},
      {"measurement": "channel activation (Ca2+ signal)", "setting": "cTRPV1", "value": "the response was relatively weak for cTRPV1; also recorded: limited response"}
    ]},
    {"compound": "ruthenium red", "values": [
      {"measurement": "block of cocktail-elicited extracellular Ca2+ entry", "setting": "rTRPV1", "value": "could be blocked"},
      {"measurement": "block of cocktail-elicited ion flow", "setting": "cTRPV1", "value": "sufficient to block most ions"}
    ]},
    {"compound": "COc1cc(CNC(=O)CCCC/C=C/C(C)C)ccc1OCCN", "note": "[Cap-EA, O-aminoethyl capsaicin]", "values": [
      {"measurement": "capsaicin analog-induced activation", "setting": "rTRPV1", "value": "strong response"},
      {"measurement": "capsaicin analog-induced activation", "setting": "cTRPV1-A578E", "value": "successfully activated; also recorded: strongly activated"},
      {"measurement": "capsaicin analog-induced activation", "setting": "3XHA-cTRPV1-A578K", "value": "partially activated"}
    ]},
    {"compound": "COc1cc(CCC(C)=O)ccc1O", "note": "[zingerone]", "values": [
      {"measurement": "zingerone-induced activation", "setting": "3XHA-cTRPV1-A578Q", "value": "did not activate"},
      {"measurement": "Zingerone-induced activity relative to capsaicin", "setting": "rTRPV1", "value": "35.9 ± 5.0", "unit": "%"},
      {"measurement": "zingerone-induced activation", "setting": "rTRPV1", "value": "activated rTRPV1"},
      {"measurement": "zingerone-induced activation", "setting": "3XHA-cTRPV1-A578P", "value": "did not activate"},
      {"measurement": "zingerone-induced activation", "setting": "cTRPV1-A578E", "value": "did not activate"},
      {"measurement": "zingerone-induced activation", "setting": "3XHA-cTRPV1-A578K", "value": "did not activate"}
    ]},
    {"compound": "CNCCOc1ccc(CNC(=O)CCCC/C=C/C(C)C)cc1OC", "note": "[Cap-EMA, O-(N-methylaminoethyl) capsaicin]", "values": [
      {"measurement": "capsaicin analog-induced activation", "setting": "rTRPV1", "value": "strong response"},
      {"measurement": "capsaicin analog-induced activation", "setting": "3XHA-cTRPV1-A578K", "value": "slightly activated"}
    ]}
  ]
}
